Columns and labels:
[1] = test system: ethanol/HCl-induced gastric lesions; assay: Ethanol/HCl-induced gastric lesion (ulcer) model in mice; format: in vivo; conditions: for inhibition in vivo at 25 mg/kg: Mus musculus, po, read-out: Gastroprotective effect: % Lesion reduction; for Gastroprotective effect: Lesion index: mean ± SD, sum of lesion lengths
Protocol: The gastroprotective activity of the compounds was determined in the ethanol/HCl-induced lesion model in mice. The purity of the tested compounds was higher than 95% by NMR analysis. Male Swiss albino mice weighing 30 ± 3 g were used. Animals were fed on certified Champion diet with free access to water under standard conditions of 12 h dark-light period, 50% relative humidity and 22 °C room temperature. Mice were randomly distributed into groups of eight animals each and fasted for 24 h with free access to water previous to the experiment. Fasting prior to ulcerogenic assays was used because 0.2 mL of the reference antisecretory drug lansoprazole (2-[[[3-methyl-4-(2,2,2-trifluroethoxy)-2-pyridyl]methyl]sulfinyl]benzimidazole) and the amides were administered orally. To keep the animal number to a minimum, dose-response studies were performed with the leucine derivatives 13 and 18 to set the conditions for single-dose comparison of gastroprotective effect. For the selected parent compounds, three doses were used: 25, 50 and 100 mg/kg. Fifty min after oral administration of the compounds, lansoprazole (20 mg/kg) or the vehicle (12% Tween 80, 10 mL/kg), all groups were orally treated with 0.2 mL of a solution containing 60% ethanol/0.3 M HCl (ethanol/HCl) for gastric lesion induction. Animals were sacrificed by cervical dislocation 1 h after the administration of ethanol/HCl, and the stomachs excised and inflated by injection of 5% formalin (1 mL). The ulcerated stomachs were fixed in 5% formalin for 30 min and opened along the greater curvature. The length (mm) of each lesion was measured, and the lesion index expressed as the sum of the length of all lesions. For comparison purposes, the products 1-5, 7-12, 14-16, 19 and 20 were assessed at a single oral dose of 25 mg/kg. The protocols were approved by the Universidad de Talca Institutional Animal Care and Use Committee, which follows the recommendations of the Canadian Council on Animal Care. Tween 80 and lansoprazole (> 98% purity by HPLC) were purchased from Sigma Chemical Co.
Results were expressed as the mean ± SD. In all experiments, statistical differences between several treatments and their respective control were determined by one-way analysis of variance (ANOVA) and when the F value was significant, post hoc differences were determined by the Dunnett's multiple comparison test. The level of significance was set at P < 0.05. All statistical analyses were performed using the software Statistica 5.1 (StatSoft, Inc.) and Statistical Package S-Plus 2000.

[2] = Cytotoxicity, neutral red uptake assay, AGS; format: cell-based; conditions: human, AGS gastric adenocarcinoma cells, confluent monolayers, confluent cultures, 0-1000 µM, mean ± SD
Protocol: (§1) Human gastric adenocarcinoma cells AGS (ATCC CRL-1739) were grown as monolayers in Ham F-12 medium containing 1.0 mM L-glutamine and 1.5 g/L sodium bicarbonate, supplemented with 10% heat-inactivated FBS, 100 IU/mL penicillin and 100 µg/mL streptomycin in a humidified incubator with 5% CO2 in air at 37 °C. The cell passage was maintained between 42 and 48. The medium was changed every 2 days. Confluent cultures of MRC-5, AGS and Hep G2 cells were treated with medium containing the compounds at concentrations ranging from 0 up to 1000 µM. The products were first dissolved in DMSO and then in the corresponding culture medium supplemented with 2% FBS. The final content of DMSO in the test medium and controls was 1%. Cells were exposed for 24 h to the assayed compounds. Untreated cells served as controls. Each concentration was tested in quadruplicate together with the control and repeated three times in separate experiments. At the end of the incubation, the neutral red uptake (NRU) assay was carried out to determine cell viability. To calculate the IC50 values (concentration that produces a 50% inhibitory effect on the evaluated parameter) the results were transformed to percentage of controls and the IC50 value was graphically obtained from the dose-response curves.

[3] = Cytotoxicity, neutral red uptake assay, Hep G2; format: cell-based; conditions: human, Hep G2 cells, confluent monolayers, confluent cultures, 0-1000 µM, mean ± SD
Protocol: (§2) Human normal lung fibroblasts MRC-5 (ATCC CCL-171) and Hep G2 cells (ATCC HB-8065) were grown as monolayers in minimum essential Eagle´s medium (MEM), with Earle's salts, 2.0 mM L-glutamine (Sigma Chemical Co.) and 2.0 g/L sodium bicarbonate (Sigma Chemical Co.), supplemented with 10% heat-inactivated fetal bovine serum (FBS), 100 IU/mL penicillin and 100 µg/mL streptomycin in a humidified incubator with 5% CO2 in air at 37 °C. Cell passage was maintained between 10 and 16 for MRC-5 and between 79 and 82 for Hep G2 cells. The medium was changed every 2 days. Culture media, antibiotics and FBS were obtained from Invitrogen Corp.
as §1, with “Confluent” for “Human gastric adenocarcinoma cells AGS (ATCC CRL-1739) were grown as monolayers in Ham F-12 medium containing 1.0 mM L-glutamine and 1.5 g/L sodium bicarbonate, supplemented with 10% heat-inactivated FBS, 100 IU/mL penicillin and 100 µg/mL streptomycin in a humidified incubator with 5% CO2 in air at 37 °C. The cell passage was maintained between 42 and 48. The medium was changed every 2 days. Confluent”

[4] = Cytotoxicity, neutral red uptake assay, MRC-5; format: cell-based; conditions: human, MRC-5 normal lung fibroblasts, confluent monolayers, confluent cultures, 0-1000 µM, mean ± SD
Protocol: as §2
as §1, with “Confluent” for “Human gastric adenocarcinoma cells AGS (ATCC CRL-1739) were grown as monolayers in Ham F-12 medium containing 1.0 mM L-glutamine and 1.5 g/L sodium bicarbonate, supplemented with 10% heat-inactivated FBS, 100 IU/mL penicillin and 100 µg/mL streptomycin in a humidified incubator with 5% CO2 in air at 37 °C. The cell passage was maintained between 42 and 48. The medium was changed every 2 days. Confluent”

[5] = single oral dose 25 mg/kg, compared with untreated controls

Structure (SMILES) | inhibition in vivo at 25 mg/kg [1, 5] [%] | Gastroprotective effect: Lesion index ([1]; single oral dose 25 mg/kg) [mm] | IC50 at 24 h [2] [µM] | IC50 at 24 h [3] [µM] | IC50 at 24 h [4] [µM] | gastric lesion reduction at the higher doses ([1]; dose-response study, higher oral doses (50 and 100 mg/kg)) | Gastroprotective effect: % Lesion reduction ([1]; single oral dose 25 mg/kg, compared with untreated controls, 25 mg/kg) [%] | Gastroprotective effect: Lesion index ([1]; single oral dose 25 mg/kg, 25 mg/kg) [mm]
COC(=O)CNC(=O)C[C@H](C)CCC1=C(C)CCC2[C@@](C)(C(=O)O)CCC[C@]12C (some centres unmarked) [Compound 1, Labd-8(9)-en-15,19-dioic acid, 15-glycyl methyl ester amide] | 73.3 | 12.3 ± 7.6 | 189 ± 9 | 242 ± 13 | 447 ± 26 |  |  | 
COC(=O)[C@@H](NC(=O)C[C@H](C)CCC1=C(C)CCC2[C@@](C)(C(=O)O)CCC[C@]12C)C(C)C (some centres unmarked) [Compound 2, Labd-8(9)-en-15,19-dioic acid, 15-valyl methyl ester amide] | 58.5 | 19.1 ± 8.3 | > 1000 | > 1000 | > 1000 |  |  | 
COC(=O)[C@H](CC(C)C)NC(=O)C[C@H](C)CCC1=C(C)CCC2[C@@](C)(C(=O)O)CCC[C@]12C (some centres unmarked) [Compound 3, Labd-8(9)-en-15,19-dioic acid, 15-leucyl methyl ester amide] | 72.6 | 12.6 ± 6.8 | 445 ± 27 | 806 ± 32 | > 1000 |  |  | 
COC(=O)[C@@H]1CCCN1C(=O)C[C@H](C)CCC1=C(C)CCC2[C@@](C)(C(=O)O)CCC[C@]12C (some centres unmarked) [Compound 4, Labd-8(9)-en-15,19-dioic acid, 15-prolyl methyl ester amide] | 70.9 | 13.4 ± 6.8 | 167 ± 7 | 321 ± 14 | 288 ± 11 |  |  | 
COC(=O)[C@H](Cc1c[nH]c2ccccc12)NC(=O)C[C@H](C)CCC1=C(C)CCC2[C@@](C)(C(=O)O)CCC[C@]12C (some centres unmarked) [Compound 5, Labd-8(9)-en-15,19-dioic acid, 15-tryptophanyl methyl ester amide] | 25.4 | 34.3 ±12.0 | 149 ± 7 | 291 ± 11 | 260 ± 15 |  |  | 
COC(=O)[C@@H]1CCCN1C(=O)[C@@]1(C)CCC[C@]2(C)C(CC[C@@H](C)CC(=O)O)=C(C)CCC12 (some centres unmarked) [Compound 7, Labd-8(9)-en-15,19-dioic acid, 19-prolyl methyl ester amide] | 53.9 | 21.2 ± 9.5 | 266 ± 16 | 364 ± 15 | 459 ± 32 |  |  | 
COC(=O)CNC(=O)C[C@H](C)CCC1=C(C)CCC2[C@@](C)(C(=O)NCC(=O)OC)CCC[C@]12C (some centres unmarked) [Compound 8, Labd-8(9)-en-15,19-dioic acid, 15,19-diglycyl methyl ester amide] | 62 | 17.5 ± 9.9 | 592 ± 30 | 841 ± 42 | 890 ± 45 |  |  | 
COC(=O)[C@@H]1CCCN1C(=O)C[C@H](C)CCC1=C(C)CCC2[C@@](C)(C(=O)N3CCC[C@H]3C(=O)OC)CCC[C@]12C (some centres unmarked) [Compound 9, Labd-8(9)-en-15,19-dioic acid, 15,19-diprolyl methyl ester amide] | 60 | 18.4 ± 11.3 | 82 ± 4 | 67 ± 3 | 119 ± 7 |  |  | 
COC(=O)[C@H](Cc1c[nH]c2ccccc12)NC(=O)C[C@H](C)CCC1=C(C)CCC2[C@@](C)(C(=O)N[C@@H](Cc3c[nH]c4ccccc34)C(=O)OC)CCC[C@]12C (some centres unmarked) [Compound 10, Labd-8(9)-en-15,19-dioic acid, 15,19-ditryptophanyl methyl ester amide] | 61.7 | 17.6 ± 7.8 | > 1000 | > 1000 | > 1000 |  |  | 
C=C1CCC2[C@](C)(CCC[C@]2(C)C(=O)O)[C@H]1CC[C@@H](C)CC(=O)NCC(=O)OC (some centres unmarked) [Compound 11, Labd-8(17)-en-15,19-dioic acid, 15-glycyl methyl ester amide] | 71.9 | 12.9 ± 8.1 | 361 ± 18 | 541 ± 22 | > 1000 |  |  | 
C=C1CCC2[C@](C)(CCC[C@]2(C)C(=O)O)[C@H]1CC[C@@H](C)CC(=O)N[C@H](C(=O)OC)C(C)C (some centres unmarked) [Compound 12, Labd-8(17)-en-15,19-dioic acid, 15-valyl methyl ester amide] | 66.5 | 15.4 ± 8.8 | 309 ± 18 | 673 ± 34 | 380 ± 19 |  |  | 
C=C1CCC2[C@](C)(CCC[C@]2(C)C(=O)O)[C@H]1CC[C@@H](C)CC(=O)N[C@@H](CC(C)C)C(=O)OC (some centres unmarked) [Compound 13, Labd-8(17)-en-15,19-dioic acid, 15-leucyl methyl ester amide] | ~65.6 |  | 308 ± 17 | 808 ± 48 | 449 ± 29 | 79-89% | 65.6 | 15.8 ± 6.2
C=C1CCC2[C@](C)(CCC[C@]2(C)C(=O)O)[C@H]1CC[C@@H](C)CC(=O)N1CCC[C@H]1C(=O)OC (some centres unmarked) [Compound 14, Labd-8(17)-en-15,19-dioic acid, 15-prolyl methyl ester amide] | 59.8 | 18.5 ± 11.8 | 297 ± 14 | 894 ± 56 | > 1000 |  |  | 
C=C1CCC2[C@](C)(CCC[C@]2(C)C(=O)O)[C@H]1CC[C@@H](C)CC(=O)N[C@@H](Cc1c[nH]c2ccccc12)C(=O)OC (some centres unmarked) [Compound 15, Labd-8(17)-en-15,19-dioic acid, 15-tryptophanyl methyl ester amide] | 73.7 | 12.1 ± 4.7 | > 1000 | > 1000 | > 1000 |  |  | 
C=C1CCC2[C@](C)(CCC[C@]2(C)C(=O)NCC(=O)OC)[C@H]1CC[C@@H](C)CC(=O)NCC(=O)OC (some centres unmarked) [Compound 16, Labd-8(17)-en-15,19-dioic acid, 15,19-diglycyl methyl ester amide] | 73.5 | 12.2 ± 6.9 | 483 ± 29 | 529 ± 36 | > 1000 |  |  | 
